Assay results from ChEMBL document CHEMBL1201862, “PubChem BioAssay data set” (2004).
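Results reflect a 48-hour exposure of cells in 96-well plates to compound at five concentrations. The concentration for 50% growth inhibition is given as GI50.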 The source made the active and inactive calls. Rule as the data show it: active = GI50 up to about 1.1 µM and inactive = higher.

Experiments:
Assay in all cases: inhibition of tumour cell growth, NCI panel, 48 h
[1] = system: 786-0
[2] = system: ACHN
[3] = system: BT-549
[4] = system: CAKI-1
[5] = system: CCRF-CEM
[6] = system: COLO 205
[7] = system: DU-145
[8] = system: EKVX
[9] = system: HCC 2998
[10] = system: HCT-116
[11] = system: HCT-15
[12] = system: HL-60
[13] = system: HOP-62
[14] = system: HOP-92
[15] = system: HT-29
[16] = system: IGROV-1
[17] = system: K562
[18] = system: KM12
[19] = system: LOX IMVI
[20] = system: M14
[21] = system: MCF7
[22] = system: MDA-MB-435
[23] = system: MDA-N
[24] = system: MOLT-4
[25] = system: NCI-H226
[26] = system: NCI-H23
[27] = system: NCI-H460
[28] = system: NCI-H522
[29] = system: NCI/ADR-RES
[30] = system: OVCAR-3
[31] = system: OVCAR-4
[32] = system: OVCAR-5
[33] = system: OVCAR-8
[34] = system: PC-3
[35] = system: RPMI-8226
[36] = system: RXF 393
[37] = system: SF-268
[38] = system: SF-295
[39] = system: SF-539
[40] = system: SK-MEL-28
[41] = system: SK-MEL-2
[42] = system: SK-MEL-5
[43] = system: SN12C
[44] = system: SNB-19
[45] = system: SNB-75
[46] = system: SR
[47] = system: SW-620
[48] = system: T47D
[49] = system: TK-10
[50] = system: U-251
[51] = system: UACC-257
[52] = system: UACC-62
[53] = system: UO-31
[54] = system: A498
[55] = system: A549
[56] = system: MDA-MB-231
[57] = system: SK-OV-3

Measured: GI50

COc1ccc(C2CC(=O)CC(c3ccc(OC)cc3)C23C(=O)NC(=S)NC3=O)cc1 (centres undefined)
> 100 µM: [11]
inactive: [1] > 100 µM | [2] > 100 µM | [3] > 100 µM | [4] > 100 µM | [5] > 100 µM | [6] > 100 µM | [7] > 100 µM | [8] > 100 µM | [9] > 100 µM | [10] > 100 µM | [12] > 100 µM | [13] > 100 µM | [14] > 100 µM | [15] > 100 µM | [16] > 100 µM | [17] > 100 µM | [18] > 100 µM | [19] > 100 µM | [20] > 100 µM | [21] > 100 µM | [22] > 100 µM | [23] > 100 µM | [24] > 100 µM | [25] > 100 µM | [26] > 100 µM | [27] > 100 µM | [28] > 100 µM | [29] > 100 µM | [30] > 100 µM | [31] > 100 µM | [32] > 100 µM | [33] > 100 µM | [34] > 100 µM | [35] > 10 µM | [36] > 100 µM | [37] > 100 µM | [38] > 100 µM | [39] > 100 µM | [40] > 100 µM | [41] > 100 µM | [42] > 100 µM | [43] > 100 µM | [44] > 100 µM | [45] > 100 µM | [46] > 100 µM | [47] > 100 µM | [48] > 100 µM | [49] > 100 µM | [50] > 100 µM | [51] > 100 µM | [52] > 100 µM | [53] > 100 µM

C#CCOCCCC(=O)O
> 100 µM: [11]
inactive: [1] > 100 µM | [54] > 100 µM | [55] > 100 µM | [2] > 100 µM | [3] > 100 µM | [4] > 100 µM | [5] > 100 µM | [6] > 100 µM | [7] > 100 µM | [8] > 100 µM | [10] > 100 µM | [12] > 100 µM | [13] > 100 µM | [14] > 100 µM | [15] > 100 µM | [16] > 100 µM | [17] > 100 µM | [19] > 100 µM | [20] > 100 µM | [21] > 100 µM | [56] > 100 µM | [23] > 100 µM | [24] > 100 µM | [25] > 100 µM | [26] > 100 µM | [27] > 100 µM | [29] > 100 µM | [30] > 100 µM | [31] > 100 µM | [32] > 100 µM | [33] > 100 µM | [34] > 100 µM | [35] > 100 µM | [36] > 100 µM | [38] > 100 µM | [39] > 100 µM | [40] > 100 µM | [41] > 100 µM | [42] > 100 µM | [57] > 100 µM | [43] > 100 µM | [44] > 100 µM | [45] > 100 µM | [46] > 100 µM | [47] > 100 µM | [48] > 100 µM | [49] > 100 µM | [50] > 100 µM | [51] > 100 µM | [52] > 100 µM
